Test results reported in patent US20050197350A1, “Novel quinoline, tetrahydroquinazoline, and pyrimidine derivatives and methods of treatment related to the use thereof” (TAISHO PHARMACEUTICAL CO., LTD., priority 2003, published 2005).

system: MCH receptors; experiment: MCH receptor activity class (method not given); details: MCH receptor activity class 1-3 (percent of control at 10^-7 M or IC50)

| Compound | class |
| --- | --- |
| C[C@@H](NC(=S)N[C@H]1CC[C@@H](Nc2cc(N(C)C)c3ccccc3n2)CC1)c1ccccc1 [compound 2298] | 3 (Class 3 The value of percent of control at 10^−7 M was more than 60% or the value of IC50 was more than 200 nM.) |
| Cc1cccc(NC(=S)N[C@H]2CC[C@@H](Nc3cc(N(C)C)c4ccccc4n3)CC2)c1C [compound 2299] | 3 (Class 3 The value of percent of control at 10^−7 M was more than 60% or the value of IC50 was more than 200 nM.) |
| CN(C)c1cc(N[C@H]2CC[C@@H](NC(=S)Nc3c(F)cc(Br)cc3Br)CC2)nc2ccccc12 [compound 2300, N-(2,4-dibromo-6-fluorophenyl)-N′-(cis-4-{[4-(dimethylamino)quinolin-2-yl]amino}cyclohexyl)thiourea] | 2 (Class 2: The value of percent of control at 10^−7 M was from 40% to 60% or the value of IC′50 was from 50 nM to 200 nM.) |
| Cc1cc(Cl)cc(Cl)c1NC(=S)N[C@H]1CC[C@@H](Nc2cc(N(C)C)c3ccccc3n2)CC1 [compound 2301, N-(2,4-dichloro-6-methylphenyl)-N′-(cis-4-{[4-(dimethylamino)quinolin-2-yl]amino}cyclohexyl)thiourea] | 1 (Class 1: The value of percent of control at 10^−7 M was less than 40% or the value of IC50 was less than 50 nM.) |
| CCOc1ccccc1NC(=S)N[C@H]1CC[C@@H](Nc2cc(N(C)C)c3ccccc3n2)CC1 [compound 2302] | 3 (Class 3 The value of percent of control at 10^−7 M was more than 60% or the value of IC50 was more than 200 nM.) |
| Cc1cccc(C(C)C)c1NC(=S)N[C@H]1CC[C@@H](Nc2cc(N(C)C)c3ccccc3n2)CC1 [compound 2303] | 3 (Class 3 The value of percent of control at 10^−7 M was more than 60% or the value of IC50 was more than 200 nM.) |
| CN(C)c1cc(N[C@H]2CC[C@@H](NC(=S)Nc3ccc4c(c3)OCCO4)CC2)nc2ccccc12 [compound 2304] | 3 (Class 3 The value of percent of control at 10^−7 M was more than 60% or the value of IC50 was more than 200 nM.) |
| CN(C)c1cc(N[C@H]2CC[C@@H](NC(=S)Nc3ccc4c(c3)OCO4)CC2)nc2ccccc12 [compound 2305] | 3 (Class 3 The value of percent of control at 10^−7 M was more than 60% or the value of IC50 was more than 200 nM.) |
| Cc1c(Cl)cccc1NC(=S)N[C@H]1CC[C@@H](Nc2cc(N(C)C)c3ccccc3n2)CC1 [compound 2306] | 3 (Class 3 The value of percent of control at 10^−7 M was more than 60% or the value of IC50 was more than 200 nM.) |
| CN(C)c1cc(N[C@H]2CC[C@@H](NC(=S)Nc3ccc(Br)cc3OC(F)(F)F)CC2)nc2ccccc12 [compound 2307] | 3 (Class 3 The value of percent of control at 10^−7 M was more than 60% or the value of IC50 was more than 200 nM.) |
| COc1cc(NC(=S)N[C@H]2CC[C@@H](Nc3cc(N(C)C)c4ccccc4n3)CC2)c(OC)cc1Cl [compound 2308] | 3 (Class 3 The value of percent of control at 10^−7 M was more than 60% or the value of IC50 was more than 200 nM.) |
| Cc1onc(-c2ccccc2)c1NC(=S)N[C@H]1CC[C@@H](Nc2cc(N(C)C)c3ccccc3n2)CC1 [compound 2309] | 3 (Class 3 The value of percent of control at 10^−7 M was more than 60% or the value of IC50 was more than 200 nM.) |
| COC(=O)c1scc(C)c1NC(=S)N[C@H]1CC[C@@H](Nc2cc(N(C)C)c3ccccc3n2)CC1 [compound 2311] | 2 (Class 2: The value of percent of control at 10^−7 M was from 40% to 60% or the value of IC′50 was from 50 nM to 200 nM.) |
| COC(=O)c1sccc1NC(=S)N[C@H]1CC[C@@H](Nc2cc(N(C)C)c3ccccc3n2)CC1 [compound 2312] | 3 (Class 3 The value of percent of control at 10^−7 M was more than 60% or the value of IC50 was more than 200 nM.) |
| CCCCc1ccc(NC(=S)N[C@H]2CC[C@@H](Nc3cc(N(C)C)c4ccccc4n3)CC2)c(C)c1 [compound 2313] | 3 (Class 3 The value of percent of control at 10^−7 M was more than 60% or the value of IC50 was more than 200 nM.) |
| COc1cc([N+](=O)[O-])ccc1NC(=S)N[C@H]1CC[C@@H](Nc2nccc(N(C)C)n2)CC1 [compound 2314] | 3 (Class 3 The value of percent of control at 10^−7 M was more than 60% or the value of IC50 was more than 200 nM.) |
| COc1ccc(C)cc1NC(=S)N[C@H]1CC[C@@H](Nc2nccc(N(C)C)n2)CC1 [compound 2315] | 3 (Class 3 The value of percent of control at 10^−7 M was more than 60% or the value of IC50 was more than 200 nM.) |
| CN(C)c1ccnc(N[C@H]2CC[C@@H](NC(=S)Nc3ccc(Br)cc3Cl)CC2)n1 [compound 2316] | 3 (Class 3 The value of percent of control at 10^−7 M was more than 60% or the value of IC50 was more than 200 nM.) |
| CN(C)c1ccnc(N[C@H]2CC[C@@H](NC(=S)Nc3ccc(I)cc3)CC2)n1 [compound 2317] | 3 (Class 3 The value of percent of control at 10^−7 M was more than 60% or the value of IC50 was more than 200 nM.) |
| CN(C)c1ccnc(N[C@H]2CC[C@@H](NC(=S)Nc3c(Cl)cc(Cl)cc3Cl)CC2)n1 [compound 2319] | 3 (Class 3 The value of percent of control at 10^−7 M was more than 60% or the value of IC50 was more than 200 nM.) |
| Cc1cc(C)c(NC(=S)N[C@H]2CC[C@@H](Nc3nccc(N(C)C)n3)CC2)c(C)c1 [compound 2320, N-(cis-4-{[4-(dimethylamino)pyrimidin-2-yl]amino}cyclohexyl)-N′-mesitylthiourea] | 1 (Class 1: The value of percent of control at 10^−7 M was less than 40% or the value of IC50 was less than 50 nM.) |

| Compound | class |
| --- | --- |
| Cc1ccc(NC(=S)N[C@H]2CC[C@@H](Nc3nccc(N(C)C)n3)CC2)c(C)c1 [compound 2321] | 3 (Class 3 The value of percent of control at 10^−7 M was more than 60% or the value of IC50 was more than 200 nM.) |
| CCc1cccc(CC)c1NC(=S)N[C@H]1CC[C@@H](Nc2nccc(N(C)C)n2)CC1 [compound 2322] | 3 (Class 3 The value of percent of control at 10^−7 M was more than 60% or the value of IC50 was more than 200 nM.) |
| Cc1ccc(NC(=S)N[C@H]2CC[C@@H](Nc3nccc(N(C)C)n3)CC2)c(Br)c1 [compound 2323] | 3 (Class 3 The value of percent of control at 10^−7 M was more than 60% or the value of IC50 was more than 200 nM.) |
| CN(C)c1ccnc(N[C@H]2CC[C@@H](NC(=S)NCc3ccccc3Cl)CC2)n1 [compound 2324] | 3 (Class 3 The value of percent of control at 10^−7 M was more than 60% or the value of IC50 was more than 200 nM.) |
| CCc1cccc(C)c1NC(=S)N[C@H]1CC[C@@H](Nc2nccc(N(C)C)n2)CC1 [compound 2325] | 3 (Class 3 The value of percent of control at 10^−7 M was more than 60% or the value of IC50 was more than 200 nM.) |
| CC(C)c1ccccc1NC(=S)N[C@H]1CC[C@@H](Nc2nccc(N(C)C)n2)CC1 [compound 2326] | 3 (Class 3 The value of percent of control at 10^−7 M was more than 60% or the value of IC50 was more than 200 nM.) |
| COC(=O)c1cccc(NC(=S)N[C@H]2CC[C@@H](Nc3nccc(N(C)C)n3)CC2)c1 [compound 2327] | 3 (Class 3 The value of percent of control at 10^−7 M was more than 60% or the value of IC50 was more than 200 nM.) |
| Cc1cc(Br)cc(C)c1NC(=S)N[C@H]1CC[C@@H](Nc2nccc(N(C)C)n2)CC1 [compound 2328, N-(4-bromo-2,6-dimethylphenyl)-N′-(cis-4-{[4-(dimethylamino)pyrimidin-2-yl]amino}cyclohexyl)thiourea] | 1 (Class 1: The value of percent of control at 10^−7 M was less than 40% or the value of IC50 was less than 50 nM.) |
| Cc1cc(Br)ccc1NC(=S)N[C@H]1CC[C@@H](Nc2nccc(N(C)C)n2)CC1 [compound 2329] | 3 (Class 3 The value of percent of control at 10^−7 M was more than 60% or the value of IC50 was more than 200 nM.) |
| CN(C)c1ccnc(N[C@H]2CC[C@@H](NC(=S)Nc3ccc(Br)cc3C(F)(F)F)CC2)n1 [compound 2330] | 3 (Class 3 The value of percent of control at 10^−7 M was more than 60% or the value of IC50 was more than 200 nM.) |
| Cc1cc(Cl)ccc1NC(=S)N[C@H]1CC[C@@H](Nc2nccc(N(C)C)n2)CC1 [compound 2331] | 3 (Class 3 The value of percent of control at 10^−7 M was more than 60% or the value of IC50 was more than 200 nM.) |
| CN(C)c1ccnc(N[C@H]2CC[C@@H](NC(=S)NCc3cccc4ccccc34)CC2)n1 [compound 2332] | 3 (Class 3 The value of percent of control at 10^−7 M was more than 60% or the value of IC50 was more than 200 nM.) |
| COc1cccc(CNC(=S)N[C@H]2CC[C@@H](Nc3nccc(N(C)C)n3)CC2)c1OC [compound 2333] | 3 (Class 3 The value of percent of control at 10^−7 M was more than 60% or the value of IC50 was more than 200 nM.) |
| Cc1cc(C)c(NC(=S)N[C@H]2CC[C@@H](Nc3nccc(N(C)C)n3)CC2)cc1C [compound 2334] | 3 (Class 3 The value of percent of control at 10^−7 M was more than 60% or the value of IC50 was more than 200 nM.) |
| CN(C)c1ccnc(N[C@H]2CC[C@@H](NC(=S)Nc3ccccc3-c3ccccc3)CC2)n1 [compound 2335] | 3 (Class 3 The value of percent of control at 10^−7 M was more than 60% or the value of IC50 was more than 200 nM.) |
| Cc1cc([N+](=O)[O-])ccc1NC(=S)N[C@H]1CC[C@@H](Nc2nccc(N(C)C)n2)CC1 [compound 2336] | 3 (Class 3 The value of percent of control at 10^−7 M was more than 60% or the value of IC50 was more than 200 nM.) |
| CN(C)c1ccnc(N[C@H]2CC[C@@H](NC(=S)NCc3cccc(Cl)c3)CC2)n1 [compound 2337] | 3 (Class 3 The value of percent of control at 10^−7 M was more than 60% or the value of IC50 was more than 200 nM.) |
| CCOC(=O)c1cccc(NC(=S)N[C@H]2CC[C@@H](Nc3nccc(N(C)C)n3)CC2)c1 [compound 2338] | 3 (Class 3 The value of percent of control at 10^−7 M was more than 60% or the value of IC50 was more than 200 nM.) |
| CN(C)c1ccnc(N[C@H]2CC[C@@H](NC(=S)Nc3ccc(Cl)cc3C(F)(F)F)CC2)n1 [compound 2339] | 3 (Class 3 The value of percent of control at 10^−7 M was more than 60% or the value of IC50 was more than 200 nM.) |
| Cc1cc(F)ccc1NC(=S)N[C@H]1CC[C@@H](Nc2nccc(N(C)C)n2)CC1 [compound 2340] | 3 (Class 3 The value of percent of control at 10^−7 M was more than 60% or the value of IC50 was more than 200 nM.) |
